Reference: ChEMBL document CHEMBL5608241, “Discovery of Novel Non-nucleoside DOT1LR231Q Inhibitors with Improved Pharmacokinetic Properties and Anti-lung Cancer Efficacy” (J Med Chem, 2024)
Activity calls are given as the source filed them. No cut-off for these calls is given here.

Tests used:
[1] = AUC (0 to t) in male Sprague-Dawley rat at 20 mg/kg, ip measured after 24 hrs by LC-MS/MS analysis; type: ADME, organism-based; conditions: in vivo
[2] = Toxicity in male BALB/c-nu mouse model xenografted with human NCI-H460 cells harboring DOT1L R231Q mutant assessed as effect on body weight at 20 mg/kg, ip administered five times a week for 3 weeks; type: organism-based; conditions: in vivo, 504 h
NCI-H460 [3] = test: Effect on H3K4me1 expression in human NCI-H460 cells exogenously expressing wildtype DOT1L (unknown origin) (1 to 416 residues) at 5 uM by Western blot analysis; type: functional, cell-based
[4] = Toxicity in male BALB/c-nu mouse model xenografted with human NCI-H460 cells harboring DOT1L R231Q mutant assessed as effect on liver viscera index at 20 mg/kg, ip administered five times a week for 3 weeks; type: organism-based; conditions: in vivo, 504 h
[5] = Bioavailability in male Sprague-Dawley rat at 20 mg/kg, ip measured after 24 hrs by LC-MS/MS analysis; type: ADME, organism-based; conditions: in vivo
NCI-H460 [6] = test: Antiinvasive activity against human NCI-H460 cells exogenously expressing wildtype DOT1L (unknown origin) (1 to 416 residues) assessed as inhibition of cell invasion at 2.5 to 5 uM incubated for 72 hrs by crystal violet staining based transwell invasion assay; type: functional; conditions: dose 2.5-5 µM
[7] = Toxicity in male BALB/c-nu mouse model xenografted with human NCI-H460 cells harboring DOT1L R231Q mutant assessed as effect on kidney viscera index at 20 mg/kg, ip administered five times a week for 3 weeks; type: organism-based; conditions: in vivo, 504 h
NCI-H460 [8] = test: Antiproliferative activity against human NCI-H460 cells harboring wildtype DOT1L (unknown origin) (1 to 416 residues) assessed as inhibition of cell proliferation incubated for 72 hrs by CCK-8 assay; type: functional, cell-based; conditions: NCI-H460, 72 h
NCI-H460 [9] = test: Effect on H3K79me2 expression in human NCI-H460 cells exogenously expressing wildtype DOT1L (unknown origin) (1 to 416 residues) at 5 uM by Western blot analysis; type: functional, cell-based
NCI-H460 [10] = test: Inhibition of sphere formation in human NCI-H460 cells exogenously expressing DOT1L R231Q mutant (unknown origin) (1 to 416 residues) assessed as reduction in self-renewal at 2.5 to 5 uM incubated for 7 to 14 days by inverted microscopic analysis; type: functional, cell-based; conditions: dose 2.5-5 µM, time 7-14 day
NCI-H460 [11] = test: Antiinvasive activity against DOT1L knockdown human NCI-H460 cells assessed as decrease in number of invading cells at 2.5 to 5 uM incubated for 72 hrs by crystal violet staining based transwell invasion assay; type: functional, cell-based; conditions: dose 2.5-5 µM
NCI-H460 [12] = test: Effect on H3K9me2 expression in human NCI-H460 cells exogenously expressing DOT1L R231Q mutant (unknown origin) (1 to 416 residues) at 5 uM by Western blot analysis; type: functional, cell-based
[13] = AUC (0 to infinity) in male Sprague-Dawley rat at 20 mg/kg, ip measured after 24 hrs by LC-MS/MS analysis; type: ADME, organism-based; conditions: in vivo
NCI-H460 [14] = test: Inhibition of colony formation in human NCI-H460 cells exogenously expressing wildtype DOT1L (unknown origin) (1 to 416 residues) at 2.5 to 5 uM incubated for 7 to 14 days by crystal violet staining based light microscopic analysis; type: functional, cell-based; conditions: dose 2.5-5 µM, time 7-14 day
NCI-H460 [15] = test: Antimigratory activity in human NCI-H460 cells exogenously expressing DOT1L R231Q mutant (unknown origin) (1 to 416 residues) assessed as decrease in number of migrating cells at 5 uM measured after 72 hrs by wound healing assay relative to control; type: functional; set-up: scale not given: the % may be the effect or the level left
NCI-H460 [16] = test: Inhibition of sphere formation in human NCI-H460 cells exogenously expressing wildtype DOT1L (unknown origin) (1 to 416 residues) assessed as reduction in self-renewal at 5 uM incubated for 7 to 14 days by inverted microscopic analysis relative to control; type: functional; conditions: time 7-14 day
NCI-H460 [17] = test: Antiinvasive activity against human NCI-H460 cells exogenously expressing wildtype DOT1L (unknown origin) (1 to 416 residues) assessed as decrease in number of invading cells at 5 uM incubated for 72 hrs by crystal violet staining based transwell invasion assay relative to control; type: functional; set-up: scale not given: the % may be the effect or the level left
[18] = AUC (0 to t) in male Sprague-Dawley rat at 20 mg/kg, iv measured after 24 hrs by LC-MS/MS analysis; type: ADME, organism-based; conditions: in vivo
[19] = Toxicity in male BALB/c-nu mouse model xenografted with human NCI-H460 cells harboring DOT1L R231Q mutant assessed as effect on spleen viscera index at 20 mg/kg, ip administered five times a week for 3 weeks; type: organism-based; conditions: in vivo, 504 h
[20] = Toxicity in male BALB/c-nu mouse model xenografted with human NCI-H460 cells harboring DOT1L R231Q mutant assessed as effect on lung viscera index at 20 mg/kg, ip administered five times a week for 3 weeks; type: organism-based; conditions: in vivo, 504 h
[21] = Toxicity in male BALB/c-nu mouse model xenografted with human NCI-H460 cells harboring DOT1L R231Q mutant assessed as effect on physical activity at 20 mg/kg, ip administered five times a week for 3 weeks; type: organism-based; conditions: in vivo, 504 h
[22] = Toxicity in male BALB/c-nu mouse model xenografted with human NCI-H460 cells harboring DOT1L R231Q mutant assessed as effect on heart viscera index at 20 mg/kg, ip administered five times a week for 3 weeks; type: organism-based; conditions: in vivo, 504 h
[23] = MRT (0 to infinity) in male Sprague-Dawley rat at 20 mg/kg, ip measured after 24 hrs by LC-MS/MS analysis; type: ADME, organism-based; conditions: in vivo
[24] = Tmax in male Sprague-Dawley rat at 20 mg/kg, iv measured after 24 hrs by LC-MS/MS analysis; type: ADME, organism-based; conditions: in vivo
[25] = Half-life in male Sprague-Dawley rat at 20 mg/kg, ip measured after 24 hrs by LC-MS/MS analysis; type: ADME, organism-based; conditions: in vivo
NCI-H460 [26] = test: Inhibition of DOT1L R231Q mutant (unknown origin) (1 to 416 residues) exogenously expressed in human NCI-H460 cells assessed as reduction in H3K79me2 level at 5 uM by Western blot analysis relative to control; type: cell-based
NCI-H460 [27] = test: Inhibition of colony formation in DOT1L knockdown human NCI-H460 cells at 2.5 to 5 uM incubated for 7 to 14 days by crystal violet staining based light microscopic analysis; type: functional, cell-based; conditions: dose 2.5-5 µM, time 7-14 day
NCI-H460 [28] = test: Antiproliferative activity against human NCI-H460 cells harboring DOT1L R231Q mutant (unknown origin) (1 to 416 residues) assessed as inhibition of cell proliferation incubated for 72 hrs by CCK-8 assay; type: functional, cell-based; conditions: NCI-H460, 72 h
NCI-H460 [29] = test: Antimigratory activity in human NCI-H460 cells exogenously expressing wildtype DOT1L (unknown origin) (1 to 416 residues) assessed as decrease in number of migrating cells at 5 uM measured after 72 hrs by wound healing assay relative to control; type: functional; set-up: scale not given: the % may be the effect or the level left
NCI-H460 [30] = test: Antiinvasive activity against human NCI-H460 cells exogenously expressing DOT1L R231Q mutant (unknown origin) (1 to 416 residues) assessed as inhibition of cell invasion at 2.5 to 5 uM incubated for 72 hrs by crystal violet staining based transwell invasion assay; type: functional; conditions: dose 2.5-5 µM
NCI-H460 [31] = test: Antiinvasive activity against human NCI-H460 cells exogenously expressing DOT1L R231Q mutant (unknown origin) (1 to 416 residues) assessed as decrease in number of invading cells at 5 uM incubated for 72 hrs by crystal violet staining based transwell invasion assay relative to control; type: functional; set-up: scale not given: the % may be the effect or the level left

SMILES: CC(C)(C)c1ccc(NC(=O)NCCCN(CCCN2CCOCC2)CC2(O)CCN(c3nc(Cl)nc4sccc34)C2)cc1 (stereo unspecified)
- AUC(0-t) at 24 h [1]: 5280 ng·h/mL
- Activity [2]: Non-Toxic
- Activity (NCI-H460 [3]): inactive
- Activity [4]: Non-Toxic
- bioavailability [5]: 92.2%
- Activity (NCI-H460 [6]): Active
- Activity [7]: Non-Toxic
- IC50 (NCI-H460 [8]): 20 µM
- Activity (NCI-H460 [9]): inactive
- inhibition (NCI-H460 [10]): Active
- Activity (NCI-H460 [11]): inactive
- Activity (NCI-H460 [12]): inactive
- AUC(0-inf) [13]: 5710 ng·h/mL
- inhibition (NCI-H460 [14]): Active
- Activity (NCI-H460 [15]): 60.4%
- inhibition at 5 µM (NCI-H460 [16]): 68.9%
- Activity (NCI-H460 [17]): 61.5%
- AUC(0-t) at 24 h [18]: 5980 ng·h/mL
- Activity [19]: Non-Toxic
- Activity [20]: Non-Toxic
- Activity [21]: Non-Toxic
- Activity [22]: Non-Toxic
- MRT inf [23]: 5.42 h
- Tmax [24]: 4.98 min
- half-life [25]: 6.06 h
- inhibition (NCI-H460 [26]): > 50%
- inhibition (NCI-H460 [27]): inactive
- IC50 (NCI-H460 [28]): 2.85 µM
- Activity (NCI-H460 [29]): 38.3%
- Activity (NCI-H460 [30]): Active
- Activity (NCI-H460 [31]): 77.7%
